The target of one assay is T1, HiBit-BRM fusion protein (Homo sapiens, UniProt P51531).
T1 construct: expressed in transfected cells
Nature of the assay: HiBiT-BRM cell-based degradation assay (Nano-Glo HiBiT lytic detection, 24 h). The following applies: HeLa cell line expressing HiBiT-BRM; for DC50: read-out: BRM HiBit Degradation IC50. The method in brief:
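Stable HeLa HiBiT-BRM cells treated 24 h with compounds (10-point 3-fold dilutions, 30 μM final top dose, duplicate). HiBiT levels read by Nano-Glo lytic luminescence; % degradation normalised to DMSO (high control) and 2 μM reference BRM/BRG1 degrader (low control).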
For orientation: HiBiT is a short tag that completes a luciferase, so light tracks the accessible tagged protein.

The target in assay [1] is T2, HiBit-BRG1 fusion protein (Homo sapiens, UniProt P51532).
T2 construct: expressed in transfected cells
T2 sequence (P51532 whole entry, the tested form may be a part): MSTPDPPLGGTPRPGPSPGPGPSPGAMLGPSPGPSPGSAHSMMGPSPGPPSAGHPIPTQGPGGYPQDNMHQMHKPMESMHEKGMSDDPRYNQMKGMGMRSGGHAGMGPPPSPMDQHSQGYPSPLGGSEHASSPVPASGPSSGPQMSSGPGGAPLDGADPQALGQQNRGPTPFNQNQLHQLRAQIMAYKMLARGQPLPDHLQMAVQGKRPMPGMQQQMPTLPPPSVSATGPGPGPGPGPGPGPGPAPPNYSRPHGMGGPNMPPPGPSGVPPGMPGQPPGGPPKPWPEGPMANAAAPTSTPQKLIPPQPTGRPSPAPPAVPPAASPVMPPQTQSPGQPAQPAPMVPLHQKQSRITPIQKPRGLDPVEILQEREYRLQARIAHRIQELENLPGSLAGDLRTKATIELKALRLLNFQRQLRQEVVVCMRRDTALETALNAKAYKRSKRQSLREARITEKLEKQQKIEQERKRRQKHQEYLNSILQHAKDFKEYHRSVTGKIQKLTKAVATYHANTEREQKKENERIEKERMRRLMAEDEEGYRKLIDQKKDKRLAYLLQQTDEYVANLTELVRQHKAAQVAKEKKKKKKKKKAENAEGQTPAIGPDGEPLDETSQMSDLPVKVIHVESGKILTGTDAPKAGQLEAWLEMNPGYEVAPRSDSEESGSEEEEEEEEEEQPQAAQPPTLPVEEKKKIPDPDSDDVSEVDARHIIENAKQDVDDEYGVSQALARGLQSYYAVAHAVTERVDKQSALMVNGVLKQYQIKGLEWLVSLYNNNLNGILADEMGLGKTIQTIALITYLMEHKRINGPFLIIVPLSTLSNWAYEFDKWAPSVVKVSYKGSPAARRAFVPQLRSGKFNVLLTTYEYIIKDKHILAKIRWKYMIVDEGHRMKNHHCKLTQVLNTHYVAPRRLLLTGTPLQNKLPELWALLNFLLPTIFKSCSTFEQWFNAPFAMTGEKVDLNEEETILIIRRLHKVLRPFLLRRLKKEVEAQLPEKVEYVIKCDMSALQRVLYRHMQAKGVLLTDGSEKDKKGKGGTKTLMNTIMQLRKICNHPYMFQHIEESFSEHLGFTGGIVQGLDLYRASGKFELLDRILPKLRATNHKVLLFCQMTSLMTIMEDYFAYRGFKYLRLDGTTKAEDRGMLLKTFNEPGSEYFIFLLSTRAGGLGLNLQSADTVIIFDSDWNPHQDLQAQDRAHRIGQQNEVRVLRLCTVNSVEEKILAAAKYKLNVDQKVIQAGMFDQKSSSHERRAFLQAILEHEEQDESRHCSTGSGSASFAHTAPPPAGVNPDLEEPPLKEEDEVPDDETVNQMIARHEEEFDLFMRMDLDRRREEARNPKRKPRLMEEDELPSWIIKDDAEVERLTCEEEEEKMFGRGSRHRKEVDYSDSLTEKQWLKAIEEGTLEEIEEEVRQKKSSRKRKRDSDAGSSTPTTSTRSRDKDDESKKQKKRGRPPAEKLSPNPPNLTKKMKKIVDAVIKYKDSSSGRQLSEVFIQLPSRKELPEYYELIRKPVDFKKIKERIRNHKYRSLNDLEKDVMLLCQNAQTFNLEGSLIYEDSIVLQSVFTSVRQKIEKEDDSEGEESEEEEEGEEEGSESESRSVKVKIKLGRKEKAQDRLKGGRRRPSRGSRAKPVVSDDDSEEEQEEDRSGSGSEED
Nature of the assay: HiBiT-BRG1 cell-based degradation assay (Nano-Glo HiBiT lytic detection, 24 h). Particulars: HeLa cell line expressing HiBit-BRG1 and LgBit; for Dmax: read-out: BRG1 HiBit Degradation Maximum (%); for DC50: read-out: BRMG1 HiBit Degradation IC50. The method in brief:
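HeLa cells stably expressing HiBiT-BRG1 and LgBiT, 5000 per well, compound-treated 24 h, equilibrated 15 min at room temperature, then lysed with LgBiT-containing Nano-Glo HiBiT lytic reagent and luminescence read. % degradation normalised between DMSO (high control) and 2 μM reference BRM/BRG1 degrader (low control).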

Molecules are shown by their SMILES.

T1 sequence (P51531 whole entry, the tested form may be a part): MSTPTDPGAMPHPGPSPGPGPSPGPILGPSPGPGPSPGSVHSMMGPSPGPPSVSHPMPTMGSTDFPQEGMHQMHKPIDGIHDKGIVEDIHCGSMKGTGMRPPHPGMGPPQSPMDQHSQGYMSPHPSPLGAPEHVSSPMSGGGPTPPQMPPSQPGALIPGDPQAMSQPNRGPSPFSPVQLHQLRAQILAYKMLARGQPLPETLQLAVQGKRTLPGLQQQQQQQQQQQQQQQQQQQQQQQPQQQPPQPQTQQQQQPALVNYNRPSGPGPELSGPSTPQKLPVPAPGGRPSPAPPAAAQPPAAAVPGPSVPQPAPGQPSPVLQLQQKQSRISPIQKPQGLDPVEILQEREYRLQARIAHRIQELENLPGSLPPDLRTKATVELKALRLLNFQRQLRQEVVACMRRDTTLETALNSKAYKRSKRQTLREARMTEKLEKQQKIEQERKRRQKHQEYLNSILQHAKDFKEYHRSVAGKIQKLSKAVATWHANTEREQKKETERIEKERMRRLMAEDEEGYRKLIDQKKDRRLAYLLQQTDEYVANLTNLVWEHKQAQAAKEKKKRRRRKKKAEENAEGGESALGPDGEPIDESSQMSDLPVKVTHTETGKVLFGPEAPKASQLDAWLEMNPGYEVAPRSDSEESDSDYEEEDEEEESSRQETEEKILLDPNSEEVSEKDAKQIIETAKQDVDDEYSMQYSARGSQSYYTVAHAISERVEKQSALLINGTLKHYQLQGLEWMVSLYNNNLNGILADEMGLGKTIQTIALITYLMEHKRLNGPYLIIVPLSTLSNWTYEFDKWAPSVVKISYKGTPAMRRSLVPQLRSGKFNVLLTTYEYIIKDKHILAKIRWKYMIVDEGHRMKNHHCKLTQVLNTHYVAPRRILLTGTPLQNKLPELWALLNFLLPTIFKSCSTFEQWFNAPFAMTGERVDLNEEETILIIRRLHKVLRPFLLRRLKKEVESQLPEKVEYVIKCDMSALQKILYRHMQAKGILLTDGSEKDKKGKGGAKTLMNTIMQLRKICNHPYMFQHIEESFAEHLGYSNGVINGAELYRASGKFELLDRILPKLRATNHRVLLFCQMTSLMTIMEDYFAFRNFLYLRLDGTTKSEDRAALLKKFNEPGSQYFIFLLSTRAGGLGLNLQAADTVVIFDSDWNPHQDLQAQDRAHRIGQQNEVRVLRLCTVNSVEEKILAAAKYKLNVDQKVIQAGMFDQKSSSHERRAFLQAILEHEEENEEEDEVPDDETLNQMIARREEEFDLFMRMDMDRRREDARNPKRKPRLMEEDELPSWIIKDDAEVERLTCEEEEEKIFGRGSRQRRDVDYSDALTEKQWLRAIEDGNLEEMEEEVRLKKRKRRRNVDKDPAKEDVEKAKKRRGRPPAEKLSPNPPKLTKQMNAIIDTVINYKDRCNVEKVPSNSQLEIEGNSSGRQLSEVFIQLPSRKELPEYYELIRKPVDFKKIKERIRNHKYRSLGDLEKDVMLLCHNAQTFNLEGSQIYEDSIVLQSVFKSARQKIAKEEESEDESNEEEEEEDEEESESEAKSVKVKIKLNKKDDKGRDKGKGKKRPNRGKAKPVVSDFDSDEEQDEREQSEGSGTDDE

For the compound `Cc1ncsc1-c1ccc([C@H](C)NC(=O)[C@@H]2C[C@@H](O)CN2C(=O)[C@@H](c2cc(-c3cnc(N4CC5(CC(c6cc7nnc(-c8ccccc8O)cc7n6C67CC(C6)C7)C5)C4)nc3)no2)C(C)C)cc1` [Compound 64, (2S,4R)-1-((R)-2-(3-(2-(6-(5-(bicyclo[1.1.1]pentan-1-yl)-3-(2-hydroxyphenyl)-5H-pyrrolo[3,2-c]pyridazin-6-yl)-2-azaspiro[3.3]heptan-2-yl)pyrimidin-5-yl)isoxazol-5-yl)-3-methylbutanoyl)-4-hydroxy-N-((S)-1-(4-(4-methylthiazol-5-yl)phenyl)ethyl)pyrrolidine-2-carboxamide], at HiBit-BRM fusion protein, the “BRM HiBit Degradation Maximum (%)” value is on record as “A (“A” indicates maximum degradation ≥75%)” and the DC50 is less than 0.01 µM. Moreover, the Dmax in assay [1] was less than 50%.
As to `Cc1ncsc1-c1ccc([C@H](C)NC(=O)[C@@H]2C[C@@H](O)CN2C(=O)[C@@H](c2cc(-c3cnc(N4CC[C@@H](c5cc6nnc(-c7cc(F)cc(Cl)c7O)cc6n5C5CC5)C4)nc3)no2)C(C)C)cc1` [Compound 70, (2S,4R)-1-((R)-2-(3-(2-((R)-3-(3-(3-chloro-5-fluoro-2-hydroxyphenyl)-5-cyclopropyl-5H-pyrrolo[3,2-c]pyridazin-6-yl)pyrrolidin-1-yl)pyrimidin-5-yl)isoxazol-5-yl)-3-methylbutanoyl)-4-hydroxy-N-((S)-1-(4-(4-methylthiazol-5-yl)phenyl)ethyl)pyrrolidine-2-carboxamide], on HiBit-BRM fusion protein, the “BRM HiBit Degradation Maximum (%)” value was “A (“A” indicates maximum degradation ≥75%)” and the DC50 is less than 0.01 µM. Further, in assay [1], the Dmax was less than 50%.
For `C#Cc1ccc(CNC(=O)[C@@H]2C[C@@H](O)CN2C(=O)C(c2cc(N3CC4(CC(c5cc6nnc(-c7ccccc7O)cc6n5C5CCC5)C4)C3)no2)C(C)C)c(Cl)c1` (stereo partly drawn) [Compound 59, (2S,4R)-N-(2-chloro-4-ethynylbenzyl)-1-(2-(3-(6-(5-cyclobutyl-3-(2-hydroxyphenyl)-5H-pyrrolo[3,2-c]pyridazin-6-yl)-2-azaspiro[3.3]heptan-2-yl)isoxazol-5-yl)-3-methylbutanoyl)-4-hydroxypyrrolidine-2-carboxamide], at HiBit-BRM fusion protein, the “BRM HiBit Degradation Maximum (%)” value is “A (“A” indicates maximum degradation ≥75%)” and the DC50 was greater than 0.01 µM. For the same compound, the Dmax in assay [1] is less than 50%.
As to `Cc1ncsc1-c1ccc([C@H](C)NC(=O)[C@@H]2C[C@@H](O)CN2C(=O)[C@@H](c2cc(N3CC4(CC(c5cc6nnc(-c7ccccc7O)cc6n5CC5CC5)C4)C3)no2)C(C)C)cc1` [Compound 77, (2S,4R)-1-((R)-2-(3-(6-(5-(cyclopropylmethyl)-3-(2-hydroxyphenyl)-5H-pyrrolo[3,2-c]pyridazin-6-yl)-2-azaspiro[3.3]heptan-2-yl)isoxazol-5-yl)-3-methylbutanoyl)-4-hydroxy-N-((S)-1-(4-(4-methylthiazol-5-yl)phenyl)ethyl)pyrrolidine-2-carboxamide], at HiBit-BRM fusion protein, the “BRM HiBit Degradation Maximum (%)” value was “A (“A” indicates maximum degradation ≥75%)” and the DC50 was less than 0.01 µM. The Dmax in assay [1] was less than 50%.
The matching figures for `CCn1c(C2CCN(c3ncc(-c4cc([C@@H](C(=O)N5C[C@H](O)C[C@H]5C(=O)N[C@@H](C)c5ccc(-c6scnc6C)cc5)C(C)C)on4)cn3)CC2)cc2nnc(-c3ccccc3O)cc21` [Compound 24, (2S,4R)-1-[(2S)-2-[3-(2-{4-[5-ethyl-3-(2-hydroxyphenyl)pyrrolo[3,2-c]pyridazin-6-yl]piperidin-1-yl}pyrimidin-5-yl)-1,2-oxazol-5-yl]-3-methylbutanoyl]-4-hydroxy-N-[(1S)-1-[4-(4-methyl-1,3-thiazol-5-yl)phenyl]ethyl]pyrrolidine-2-carboxamide]: “B (“B” indicates maximum degradation ≥50%)”, greater than 0.01 µM and less than 50%.
`Cc1cc(-c2cc([C@H](C(=O)N3C[C@H](O)C[C@H]3C(=O)N[C@@H](C)c3ccc(-c4scnc4C)cc3)C(C)C)on2)cnc1N1CC[C@@H](c2cc3nnc(-c4ccccc4O)cc3n2C2CC2)C1` [Compound 107, (2S,4R)-1-((R)-2-(3-(6-((R)-3-(5-cyclopropyl-3-(2-hydroxyphenyl)-5H-pyrrolo[3,2-c]pyridazin-6-yl)pyrrolidin-1-yl)-5-methylpyridin-3-yl)isoxazol-5-yl)-3-methylbutanoyl)-4-hydroxy-N-((S)-1-(4-(4-methylthiazol-5-yl)phenyl)ethyl)pyrrolidine-2-carboxamide]: at HiBit-BRM fusion protein, the “BRM HiBit Degradation Maximum (%)” value is reported as “A (“A” indicates maximum degradation ≥75%)” and the DC50 was greater than 0.01 µM. Further, in assay [1], the Dmax was less than 50%.
For the compound `Cc1ncsc1-c1ccc([C@H](C)NC(=O)[C@@H]2C[C@@H](O)CN2C(=O)[C@@H](c2cc(N3C[C@@H]4C(c5cc6nnc(-c7ccccc7O)cc6n5C5CC5)[C@H]4C3)no2)C(C)C)cc1` (stereo partly drawn) [Compound 101, (2S,4R)-1-((R)-2-(3-((1S,5S)-6-(5-cyclopropyl-3-(2-hydroxyphenyl)-5H-pyrrolo[3,2-c]pyridazin-6-yl)-3-azabicyclo[3.1.0]hexan-3-yl)isoxazol-5-yl)-3-methylbutanoyl)-4-hydroxy-N-((S)-1-(4-(4-methylthiazol-5-yl)phenyl)ethyl)pyrrolidine-2-carboxamide], at HiBit-BRM fusion protein, the “BRM HiBit Degradation Maximum (%)” value is reported as “A (“A” indicates maximum degradation ≥75%)” and the DC50 is less than 0.01 µM. Also, in assay [1], the Dmax is greater than 50% and the DC50 is greater than 0.01 µM.
Take `Cc1ncsc1-c1ccc([C@H](C)NC(=O)[C@@H]2C[C@@H](O)CN2C(=O)[C@H](c2cc(-c3cnc(N4CC[C@@H](c5cc6nnc(-c7ccccc7O)cc6n5C5CC5)C4)nc3)no2)C(C)C)cc1` [Compound 37, (2S,4R)-1-((S)-2-(3-(2-((R)-3-(5-cyclopropyl-3-(2-hydroxyphenyl)-5H-pyrrolo[3,2-c]pyridazin-6-yl)pyrrolidin-1-yl)pyrimidin-5-yl)isoxazol-5-yl)-3-methylbutanoyl)-4-hydroxy-N—((S)-1-(4-(4-methylthiazol-5-yl)phenyl)ethyl)pyrrolidine-2-carboxamide]: on HiBit-BRM fusion protein, the “BRM HiBit Degradation Maximum (%)” value was “A (“A” indicates maximum degradation ≥75%)” and the DC50 was greater than 0.01 µM. Besides, the Dmax in assay [1] was less than 50%.
On to `Cc1ncsc1-c1ccc([C@H](C)NC(=O)[C@@H]2C[C@@H](O)CN2C(=O)[C@@H](c2cc(OCCN3CC(n4ccc5nnc(-c6ccccc6O)cc54)C3)no2)C(C)C)cc1` [Compound 31, (2S,4R)-4-hydroxy-1-[(2R)-2-[3-(2-{3-[3-(2-hydroxyphenyl)pyrrolo[3,2-c]pyridazin-5-yl]azetidin-1-yl}ethoxy)-1,2-oxazol-5-yl]-3-methylbutanoyl]-N-[(1S)-1-[4-(4-methyl-1,3-thiazol-5-yl)phenyl]ethyl]pyrrolidine-2-carboxamide], for which, on HiBit-BRM fusion protein, the “BRM HiBit Degradation Maximum (%)” value was “B (“B” indicates maximum degradation ≥50%)” and the DC50 is greater than 0.01 µM. Besides, in assay [1], the Dmax was less than 50%.
The matching figures for `Cc1ncsc1-c1ccc([C@H](C)NC(=O)[C@@H]2C[C@@H](O)CN2C(=O)[C@H](c2cc(-c3cnc(N4CC[C@H](c5cc6nnc(-c7ccccc7O)cc6n5C5CC5)C4)nc3)no2)C(C)C)cc1` [Compound 35, (2S,4R)-1-((S)-2-(3-(2-((S)-3-(5-cyclopropyl-3-(2-hydroxyphenyl)-5H-pyrrolo[3,2-c]pyridazin-6-yl)pyrrolidin-1-yl)pyrimidin-5-yl)isoxazol-5-yl)-3-methylbutanoyl)-4-hydroxy-N—((S)-1-(4-(4-methylthiazol-5-yl)phenyl)ethyl)pyrrolidine-2-carboxamide]: “A (“A” indicates maximum degradation ≥75%)”, greater than 0.1 µM and less than 50%.
For `CNC(=O)[C@@H]1C[C@@H](O)CN1C(=O)[C@@H](c1cc(N2CC3(CC(c4cc5nnc(-c6ccccc6O)cc5n4C4CCC4)C3)C2)no1)C(C)C` [Compound 61, (2S,4R)-1-((R)-2-(3-(6-(5-cyclobutyl-3-(2-hydroxyphenyl)-5H-pyrrolo[3,2-c]pyridazin-6-yl)-2-azaspiro[3.3]heptan-2-yl)isoxazol-5-yl)-3-methylbutanoyl)-4-hydroxy-N-methylpyrrolidine-2-carboxamide] the same measures were “A (“A” indicates maximum degradation ≥75%)”, greater than 0.01 µM and less than 50%.
As to `Cc1ncsc1-c1ccc([C@H](C)NC(=O)[C@@H]2C[C@@H](O)CN2C(=O)[C@H](C(C)C)n2cc(-c3cnc(N4CC[C@@H](c5cc6nnc(-c7ccccc7O)cc6n5C5CC5)C4)nc3)nn2)cc1` [Compound 71, (2S,4R)-1-((S)-2-(4-(2-((R)-3-(5-cyclopropyl-3-(2-hydroxyphenyl)-5H-pyrrolo[3,2-c]pyridazin-6-yl)pyrrolidin-1-yl)pyrimidin-5-yl)-1H-1,2,3-triazol-1-yl)-3-methylbutanoyl)-4-hydroxy-N-((S)-1-(4-(4-methylthiazol-5-yl)phenyl)ethyl)pyrrolidine-2-carboxamide], on HiBit-BRM fusion protein, the “BRM HiBit Degradation Maximum (%)” value is reported as “A (“A” indicates maximum degradation ≥75%)” and the DC50 was less than 0.01 µM. In addition, in assay [1], the Dmax was greater than 75% and the DC50 is less than 0.01 µM.

For the origin of these results see patent publication US20250302832A1, “PYRAZINE DERIVATIVES AND USES THEREOF” (FOGHORN THERAPEUTICS INC., priority 2022, published 2025).
